Source: article PMC11822212, “High-throughput screening identifies Aurora kinase B as a critical therapeutic target for Merkel cell carcinoma” (Nature Communications, 2025)
Read-outs that look alike come from different tables or passages of the source.

Legend:
HEK293T cells = experiment: qHTS cell viability (CellTiter-Glo, 72 h; primary screen), control cell line; assay type: cell-based, human
[1] = system: MCC cell lines (WAGA, MKL-1, MKL-2, MCC13, MCC26, UISO); experiment: qHTS cell viability, all six MCC cell lines as a group (mean AUC, MCC.avg); assay type: cell-based, human
NIH-3T3 cells = experiment: qHTS cell viability (CellTiter-Glo, 72 h; primary screen), control cell line; assay type: cell-based, mouse
CRL-7250 cells = experiment: as above; assay type: cell-based
WAGA cells (VP-MCC) = experiment: qHTS cell viability (CellTiter-Glo, 72 h; primary and follow-up small molecule screen); assay type: cell-based, human
UISO cells (VN-MCC) = experiment: as above; assay type: cell-based, human
[2] = system: control cell lines (HACAT, HEK293T, CRL-7250, NIH-3T3); experiment: qHTS cell viability, control cell lines as a group (mean AUC, Control.avg); assay type: cell-based
MKL-2 cells (VP-MCC) = experiment: qHTS cell viability (CellTiter-Glo, 72 h; primary and follow-up small molecule screen); assay type: cell-based, human
MCC26 cells (VN-MCC) = experiment: as above; assay type: cell-based, human
HACAT cells = experiment: qHTS cell viability (CellTiter-Glo, 72 h; primary screen), control cell line; assay type: cell-based, human
[3] = system: VN-MCC cell lines (MCC13, MCC26, UISO); experiment: qHTS cell viability, VN-MCC cell lines as a group (mean AUC, VN.MCC.avg); assay type: cell-based, human
MCC13 cells (VN-MCC) = experiment: qHTS cell viability (CellTiter-Glo, 72 h; primary and follow-up small molecule screen); assay type: cell-based, human
[4] = system: VP-MCC cell lines (WAGA, MKL-1, MKL-2); experiment: qHTS cell viability, VP-MCC cell lines as a group (mean AUC, VP.MCC.avg); assay type: cell-based, human
MKL-1 cells (VP-MCC) = experiment: qHTS cell viability (CellTiter-Glo, 72 h; primary and follow-up small molecule screen); assay type: cell-based, human
[5] = system: six MCC cell lines and four control cell lines; experiment: qHTS cell viability, all 10 cell lines screened; assay type: cell-based

COc1c(C)c2c(c(O)c1C/C=C(\C)CCC(=O)OCCN1CCOCC1)C(=O)OC2 [Mycophenolate mofetil]
HEK293T_AUC (HEK293T cells; NPC library, qHTS dose-response AUC, HEK293T control): 332.795 | MCC_Avg_AUC ([1]; NPC library, mean AUC of all 6 MCC cell lines): 256.444 | MCC_Avg_AUC ([1]; NPC library, mean AUC of six MCC cell lines): 256.444 | NIH3T3_AUC (NIH-3T3 cells; NPC library, qHTS dose-response AUC, NIH3T3 control): 433.09 | CRL7250_AUC (CRL-7250 cells; NPC library, qHTS dose-response AUC, CRL7250 control): 396.679 | WAGA_AUC (WAGA cells (VP-MCC); NPC library, qHTS dose-response AUC, WAGA): 157.003 | Area under the dose-response curve (AUC) WAGA Replicate 1 (WAGA cells (VP-MCC); follow-up screen, WAGA, replicate 1): 322.6 | Area under the dose-response curve (AUC) WAGA Replicate 2 (WAGA cells (VP-MCC); follow-up screen, WAGA, replicate 2): 354.0 | Area under the dose-response curve (AUC) WAGA Replicate 3 (WAGA cells (VP-MCC); follow-up screen, WAGA, replicate 3): 383.1 | UISO_AUC (UISO cells (VN-MCC); NPC library, qHTS dose-response AUC, UISO): 380.141 | Area under the dose-response curve (AUC) UISO Replicate 1 (UISO cells (VN-MCC); follow-up screen, UISO, replicate 1): 348.1 | Area under the dose-response curve (AUC) UISO Replicate 2 (UISO cells (VN-MCC); follow-up screen, UISO, replicate 2): 378.4 | Area under the dose-response curve (AUC) UISO Replicate 3 (UISO cells (VN-MCC); follow-up screen, UISO, replicate 3): 389.6 | Control_Avg_AUC ([2]; NPC library, mean AUC of control cell lines): 400.588 | MKL2_AUC (MKL-2 cells (VP-MCC); NPC library, qHTS dose-response AUC, MKL2): 105.914 | Area under the dose-response curve (AUC) MKL-2 Replicate 1 (MKL-2 cells (VP-MCC); follow-up screen, MKL-2, replicate 1): 325.5 | Area under the dose-response curve (AUC) MKL-2 Replicate 2 (MKL-2 cells (VP-MCC); follow-up screen, MKL-2, replicate 2): 324.8 | Area under the dose-response curve (AUC) MKL-2 Replicate 3 (MKL-2 cells (VP-MCC); follow-up screen, MKL-2, replicate 3): 367.3 | MCC26_AUC (MCC26 cells (VN-MCC); NPC library, qHTS dose-response AUC, MCC26): 393.051 | Area under the dose-response curve (AUC) MCC26 Replicate 1 (MCC26 cells (VN-MCC); follow-up screen, MCC26, replicate 1): 381.3 | Area under the dose-response curve (AUC) MCC26 Replicate 2 (MCC26 cells (VN-MCC); follow-up screen, MCC26, replicate 2): 385.2 | Area under the dose-response curve (AUC) MCC26 Replicate 3 (MCC26 cells (VN-MCC); follow-up screen, MCC26, replicate 3): 373.0 | HACAT_AUC (HACAT cells; NPC library, qHTS dose-response AUC, HACAT control): 439.79 | Control-VN-MCC ([3]; Control AUC minus VN-MCC AUC): 24.7903 | VN-MCC_Avg_AUC ([3]; NPC library, mean AUC of VN-MCC cell lines): 375.798 | Control-VN-MCC ([3]; NPC library, therapeutic window: Control avg AUC minus VN-MCC avg AUC): 24.7903 | MCC13_AUC (MCC13 cells (VN-MCC); NPC library, qHTS dose-response AUC, MCC13): 354.203 | Area under the dose-response curve (AUC) MCC13 Replicate 1 (MCC13 cells (VN-MCC); follow-up screen, MCC13, replicate 1): 377.4 | Area under the dose-response curve (AUC) MCC13 Replicate 2 (MCC13 cells (VN-MCC); follow-up screen, MCC13, replicate 2): 383.7 | Area under the dose-response curve (AUC) MCC13 Replicate 3 (MCC13 cells (VN-MCC); follow-up screen, MCC13, replicate 3): 412.3 | Control-VP-MCC ([4]; Control AUC minus VP-MCC AUC): 263.498 | VP-MCC_Avg_AUC ([4]; NPC library, mean AUC of VP-MCC cell lines): 137.09 | Control-VP-MCC ([4]; NPC library, therapeutic window: Control avg AUC minus VP-MCC avg AUC): 263.498 | MKL1_AUC (MKL-1 cells (VP-MCC); NPC library, qHTS dose-response AUC, MKL1): 148.352 | Area under the dose-response curve (AUC) MKL-1 Replicate 1 (MKL-1 cells (VP-MCC); follow-up screen, MKL-1, replicate 1): 342.8 | Area under the dose-response curve (AUC) MKL-1 Replicate 2 (MKL-1 cells (VP-MCC); follow-up screen, MKL-1, replicate 2): 365.2 | Area under the dose-response curve (AUC) MKL-1 Replicate 3 (MKL-1 cells (VP-MCC); follow-up screen, MKL-1, replicate 3): 378.9 | Control-MCC ([5]; NPC library, therapeutic window: Control avg AUC minus MCC avg AUC): 144.144

Cc1ccc([N+](=O)[O-])[c]2c1[O][Hg]2 [Nitromersol]
HEK293T_AUC (HEK293T cells): 310.441 | MCC_Avg_AUC [1]: 290.488 | NIH3T3_AUC (NIH-3T3 cells): 388.302 | CRL7250_AUC (CRL-7250 cells): 286.086 | WAGA_AUC (WAGA cells (VP-MCC)): 281.054 | UISO_AUC (UISO cells (VN-MCC)): 294.101 | Control_Avg_AUC [2]: 345.629 | MKL2_AUC (MKL-2 cells (VP-MCC)): 228.637 | MCC26_AUC (MCC26 cells (VN-MCC)): 361.414 | HACAT_AUC (HACAT cells): 397.686 | Control-VN-MCC [3]: 18.7838 | VN-MCC_Avg_AUC [3]: 326.845 | MCC13_AUC (MCC13 cells (VN-MCC)): 325.021 | Control-VP-MCC [4]: 91.4976 | VP-MCC_Avg_AUC [4]: 254.131 | MKL1_AUC (MKL-1 cells (VP-MCC)): 252.702 | Control-MCC [5]: 55.1407

COc1cc(C[C@@H](C)N)c(OC)cc1C.Cl
HEK293T_AUC (HEK293T cells): 304.503 | MCC_Avg_AUC [1]: 256.594 | NIH3T3_AUC (NIH-3T3 cells): 358.481 | CRL7250_AUC (CRL-7250 cells): 239.588 | WAGA_AUC (WAGA cells (VP-MCC)): 120.519 | UISO_AUC (UISO cells (VN-MCC)): 418.828 | Control_Avg_AUC [2]: 335.209 | MKL2_AUC (MKL-2 cells (VP-MCC)): 72.1855 | MCC26_AUC (MCC26 cells (VN-MCC)): 411.829 | HACAT_AUC (HACAT cells): 438.262 | Control-VN-MCC [3]: -98.1417 | VN-MCC_Avg_AUC [3]: 433.35 | MCC13_AUC (MCC13 cells (VN-MCC)): 469.394 | Control-VP-MCC [4]: 255.371 | VP-MCC_Avg_AUC [4]: 79.8375 | MKL1_AUC (MKL-1 cells (VP-MCC)): 46.808 | Control-MCC [5]: 78.6147
